Assay results as given in article PMC12808100, “The non-catalytic DNA polymerase ε subunit is an NPF motif recognition protein” (Nature Communications, 2025).

Biological target: His6-avi-MBP-tagged POLE2
Test: Single-point nHU-MS with recombinant His6-avi-MBP-POLE2 bait, Jurkat extract
Type: binding, human
Settings: significant apparent affinity of endogenous prey protein for POLE2 bait; single-point nHU-MS; Figure S11
Description: So far, our study only focused on a few hand-picked NPF motifs and studied them as short synthetic peptides. However, many other proteins may be present in the proteome that could bind to POLE2 and their putative NPF motifs are embedded in their natural structures that can greatly affect their binding properties. To investigate interactions between POLE2 and intact, full length proteins proteome-wide, we used nHU-MS experiments with recombinant His6-avi-MBP-tagged POLE2 as bait and purified His6-avi-MBP as a control. Even though we are aware that this recombinant POLE2 may bind to NPF motifs with a somewhat altered affinity, we assumed that this would affect all NPF motif-mediated interactions equally, allowing an unbiased affinity ranking of all identified partners. Single point nHU measurements were performed at 26 μM POLE2 concentration and the recovered supernatant was measured by label free proteomic MS measurements (Fig. 3A, Supplementary Figs. 8A, 9, Supplementary Data 1).
Single-point nHU experiments with protein baits were carried out nearly identically with two key modifications. First, the resin saturation step was carried out by mixing 50 μl streptavidin resin with 0.5−1 ml 50 μM biotinylated protein solution and the mixture was incubated for 1.5 h at 4 °C with constant agitation. Second, instead of using estimated bait concentrations, we measured it experimentally. An extra aliquot of resin stock was prepared alongside the nHU samples that were identically processed that were used to eluate the immobilized proteins under harsh conditions, in order to experimentally quantify the Cbait by using densitometry of Coomassie stained SDS-PAGE that included a protein calibration series. For this, 50 μl bait-saturated resin aliquots were mixed with 200 μl 4x Laemmli Sample Buffer (120 mM Tris-HCl pH 7, 8% SDS, 100 mM DTT, 32% glycerol, 0.004% bromphenol blue, 1% β-mercaptoethanol), instead of cell extract. After 15 min incubation at 95 °C, these samples were analyzed by SDS-PAGE using protein calibration standard, made from recombinant MBP. Densitometry was carried out after Coomassie staining on raw Tif images by using Fiji ImageJ 1.53c and experimental bait concentration were determined by adjusting for molecular weight differences between MBP and MBP-POLE2 constructs.
Samples were digested overnight at 37 °C.

Substance | pKapp_sign
NSVD [GYS1] | 4.403
HARISSTSHT [TRIP11, endogenous full length prey protein] | 4.056
KSVD [MYCBP2] | 4.444
TSSTPE [AGFG1, endogenous full length prey protein] | 4.872
